For the test, the target named is T1, hM5 (Homo sapiens, UniProt P08912).
T1 construct: expressed in transfected cells
T1 sequence (P08912 1-532): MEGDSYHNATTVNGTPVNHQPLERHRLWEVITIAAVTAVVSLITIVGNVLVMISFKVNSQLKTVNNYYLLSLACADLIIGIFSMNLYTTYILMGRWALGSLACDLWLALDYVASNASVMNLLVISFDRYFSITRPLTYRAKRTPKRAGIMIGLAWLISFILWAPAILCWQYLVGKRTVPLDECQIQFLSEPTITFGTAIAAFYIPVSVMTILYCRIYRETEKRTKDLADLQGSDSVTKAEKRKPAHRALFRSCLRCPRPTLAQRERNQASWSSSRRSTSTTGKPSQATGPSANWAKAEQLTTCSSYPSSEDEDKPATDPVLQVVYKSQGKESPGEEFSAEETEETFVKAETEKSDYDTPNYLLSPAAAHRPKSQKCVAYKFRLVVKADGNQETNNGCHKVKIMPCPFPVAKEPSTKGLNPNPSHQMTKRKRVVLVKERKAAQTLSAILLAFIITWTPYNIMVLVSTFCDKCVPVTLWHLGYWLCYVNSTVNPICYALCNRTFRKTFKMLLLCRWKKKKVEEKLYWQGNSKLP
The test is described as follows: Calcium mobilization concentration-response (IC50 vs EC80 acetylcholine), CHO hM5. The following applies: CELL LINE hM5; calcium mobilization, EC80 acetylcholine addition; read-out: IC50. In kind it is cell-based. Summed up: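 IC50 values derive from percent maximal acetylcholine response after an EC80 ACh addition, measured as kinetic calcium fluorescence (static ratio, max−min). Test compounds were added 140 s before agonist. Cells: stable hM5-CHO in HEPES-buffered HBSS with 2.5 mM probenecid, pH 7.4; ≥3 independent triplicate determinations.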
For orientation: Calcium assays in cells follow changes in intracellular calcium, usually with a dye or a luminescent sensor.

The structures appear in SMILES notation. Where only a bound is given, the exact number is not on record here.

One may read the IC50 as the midpoint of a concentration-inhibition curve. As for `Cc1sc(C#N)nc1C1=CCN(S(=O)(=O)c2cnn(C)c2C)CC1` [Compound 204, 4-(1-((1,5-dimethyl-1H-pyrazol-4-yl)sulfonyl)-1,2,3,6-tetrahydropyridin-4-yl)-5-methylthiazole-2-carbonitrile], the half-maximal inhibitory concentration (IC50) is over 10000 nM.

Consider `Cc1sc(C#N)nc1C1=CCN(S(=O)(=O)c2ccc3c(c2)CCO3)CC1` [Compound 205, 4-(1-((2,3-dihydrobenzofuran-5-yl)sulfonyl)-1,2,3,6-tetrahydropyridin-4-yl)-5-methylthiazole-2-carbonitrile], for which the IC50 was over 10000 nM.

Consider `O=S(=O)(c1cnc2n1CCC2)N1CC=C(c2cc3ncnn3cc2Cl)CC1` [Compound 206, 6-chloro-7-(1-((6,7-dihydro-5H-pyrrolo[1,2-a]imidazol-3-yl)sulfonyl)-1,2,3,6-tetrahydropyridin-4-yl)-[1,2,4]triazolo[1,5-a]pyridine], for which the half-inhibitory concentration (IC50) is over 10000 nM.

On to `O=S(=O)(c1cnc2n1CCC2)N1CC=C(c2cn3ncnc3cc2Cl)CC1` [Compound 207, 7-chloro-6-(1-((6,7-dihydro-5H-pyrrolo[1,2-a]imidazol-3-yl)sulfonyl)-1,2,3,6-tetrahydropyridin-4-yl)-[1,2,4]triazolo[1,5-a]pyridine], for which the IC50 was 1600 nM.

On to `Cc1cc2ncnn2nc1C1CCN(S(=O)(=O)c2cnc3n2CCC3)CC1` [Compound 208, 6-(1-((6,7-dihydro-5H-pyrrolo[1,2-a]imidazol-3-yl)sulfonyl)piperidin-4-yl)-7-methyl-[1,2,4]triazolo[1,5-b]pyridazine], for which the IC50 was over 10000 nM.

With `Cc1cc(C#N)cnc1C1=CCN(S(=O)(=O)c2cnn(C)c2C)CC1` [Compound 209, 1′-((1,5-dimethyl-1H-pyrazol-4-yl)sulfonyl)-3-methyl-1′,2′,3′,6′-tetrahydro-[2,4′-bipyridine]-5-carbonitrile], the IC50 was over 10000 nM.

`Cc1cc(C#N)cnc1C1=CCN(S(=O)(=O)c2ccc3c(c2)CCO3)CC1` [Compound 210, 1′-((2,3-dihydrobenzofuran-5-yl)sulfonyl)-3-methyl-1′,2′,3′,6′-tetrahydro-[2,4′-bipyridine]-5-carbonitrile]: the half-maximal inhibitory concentration (IC50) was over 10000 nM.

For `Cc1sc(C(N)=O)nc1C1CCN(S(=O)(=O)c2ccc3c(c2)CCO3)CC1` [Compound 211, 4-(1-((2,3-dihydrobenzofuran-5-yl)sulfonyl)piperidin-4-yl)-5-methylthiazole-2-carboxamide], the IC50 is over 10000 nM.

As to `Cc1cn2ncnc2cc1C1=CCN(S(=O)(=O)c2cnn(C)c2C)CC1` [Compound 212, 7-(1-((1,5-dimethyl-1H-pyrazol-4-yl)sulfonyl)-1,2,3,6-tetrahydropyridin-4-yl)-6-methyl-[1,2,4]triazolo[1,5-a]pyridine], the 50% inhibitory concentration (IC50) stood at 1400 nM.

For `Cc1sc(C(N)=O)nc1C1CCN(S(=O)(=O)c2cnn(C)c2C)CC1` [Compound 213, 4-(1-((1,5-Dimethyl-1H-pyrazol-4-yl)sulfonyl)piperidin-4-yl)-5-methylthiazole-2-carboxamide], the IC50 was 5800 nM.

For `Cc1ncc(S(=O)(=O)N2CCC(c3nn4ncnc4cc3C)CC2)s1` [Compound 214, 2-methyl-5-((4-(7-methyl-[1,2,4]triazolo[1,5-b]pyridazin-6-yl)piperidin-1-yl)sulfonyl)thiazole], the IC50 was over 10000 nM.

`Cc1nc(C)c(S(=O)(=O)N2CCC(c3nn4ncnc4cc3C)CC2)s1` [Compound 215, 2,4-dimethyl-5-((4-(7-methyl-[1,2,4]triazolo[1,5-b]pyridazin-6-yl)piperidin-1-yl)sulfonyl)thiazole]: the IC50 is over 10000 nM.

As to `Cc1cc2ncnn2nc1C1CCN(S(=O)(=O)c2cnc(C)n2C)CC1` [Compound 216, 6-(1-((1,2-dimethyl-1H-imidazol-5-yl)sulfonyl)piperidin-4-yl)-7-methyl-[1,2,4]triazolo[1,5-b]pyridazine], the IC50 came out at 689 nM.

For `Cc1cc(C#N)cnc1C1CCN(S(=O)(=O)c2cnn(C)c2C)CC1` [Compound 217, 6-(1-((1,5-Dimethyl-1H-pyrazol-4-yl)sulfonyl)piperidin-4-yl)-5-methylnicotinonitrile], the IC50 is over 10000 nM.

`Cc1cc(C#N)cnc1C1CCN(S(=O)(=O)c2ccc3c(c2)CCO3)CC1` [Compound 218, 6-(1-((2,3-dihydrobenzofuran-5-yl)sulfonyl)piperidin-4-yl)-5-methylnicotinonitrile]: the IC50 is over 10000 nM.

Regarding `Cc1cc2ncnn2cc1C1CCN(S(=O)(=O)c2cnc3n2CCC3)CC1` [Compound 219, 6-(1-((6,7-dihydro-5H-pyrrolo[1,2-a]imidazol-3-yl)sulfonyl)piperidin-4-yl)-7-methyl-[1,2,4]triazolo[1,5-a]pyridine], the IC50 was over 10000 nM.

`Cc1cc2ncnn2cc1C1CCN(S(=O)(=O)c2c(C)nn(C)c2C(F)(F)F)CC1` [Compound 220, 6-(1-((1,3-dimethyl-5-(trifluoromethyl)-1H-pyrazol-4-yl)sulfonyl)piperidin-4-yl)-7-methyl-[1,2,4]triazolo[1,5-a]pyridine]: the IC50 was 38 nM.

For `Cc1cn2ncnc2cc1C1CCN(S(=O)(=O)c2cnn(C)c2C)CC1` [Compound 222, 7-(1-((1,5-Dimethyl-1H-pyrazol-4-yl)sulfonyl)piperidin-4-yl)-6-methyl-[1,2,4]triazolo[1,5-a]pyridine], the IC50 turned out to be 276 nM.

As for `Cc1ncc(S(=O)(=O)N2CC=C(c3cc4ncnn4cc3Cl)CC2)n1C` [Compound 223, 6-chloro-7-(1-((1,2-dimethyl-1H-imidazol-5-yl)sulfonyl)-1,2,3,6-tetrahydropyridin-4-yl)-[1,2,4]triazolo[1,5-a]pyridine], the IC50 was determined as 660 nM.

With `Cc1ncc(S(=O)(=O)N2CC=C(c3cn4ncnc4cc3Cl)CC2)n1C` [Compound 224, 7-chloro-6-(1-((1,2-dimethyl-1H-imidazol-5-yl)sulfonyl)-1,2,3,6-tetrahydropyridin-4-yl)-[1,2,4]triazolo[1,5-a]pyridine], the IC50 amounted to 12 nM.

As for `Cc1sc(C#N)nc1C1CCN(S(=O)(=O)c2cnn(C)c2C)CC1` [Compound 225, 4-(1-((1,5-dimethyl-1H-pyrazol-4-yl)sulfonyl)piperidin-4-yl)-5-methylthiazole-2-carbonitrile], the IC50 was over 10000 nM.

Take `Cc1sc(C#N)nc1C1CCN(S(=O)(=O)c2ccc3c(c2)CCO3)CC1` [Compound 226]: the IC50 was found to be 1400 nM.

For the compound `Cc1nn(C)c(C(F)(F)F)c1S(=O)(=O)N1CCC(c2cn3ncnc3cc2F)CC1` [Compound 227, 6-(1-((1,3-dimethyl-5-(trifluoromethyl)-1H-pyrazol-4-yl)sulfonyl)piperidin-4-yl)-7-fluoro-[1,2,4]triazolo[1,5-a]pyridine], the IC50 was 2100 nM.

As to `Cc1nn(C)c(Cl)c1S(=O)(=O)N1CCC(c2cn3ncnc3cc2F)CC1` [Compound 228, 6-(1-((5-chloro-1,3-dimethyl-1H-pyrazol-4-yl)sulfonyl)piperidin-4-yl)-7-fluoro-[1,2,4]triazolo[1,5-a]pyridine], the IC50 stood at 125 nM.

Regarding `Cc1c(S(=O)(=O)N2CCC(c3cn4ncnc4cc3F)CC2)cnn1C(F)F` [Compound 230, 6-(1-((1-(difluoromethyl)-5-methyl-1H-pyrazol-4-yl)sulfonyl)piperidin-4-yl)-7-fluoro-[1,2,4]triazolo[1,5-a]pyridine], the IC50 is over 10000 nM.

In the case of `Cn1ncc(S(=O)(=O)N2CCC(c3cn4ncnc4cc3F)CC2)c1C(F)F` [Compound 231, 6-(1-((5-(difluoromethyl)-1-methyl-1H-pyrazol-4-yl)sulfonyl)piperidin-4-yl)-7-fluoro-[1,2,4]triazolo[1,5-a]pyridine], the half-inhibitory concentration (IC50) turned out to be 176 nM.

With `O=S(=O)(c1cnn2c1CCC2)N1CCC(c2cn3ncnc3cc2F)CC1` [Compound 232, 6-(1-((5,6-dihydro-4H-pyrrolo[1,2-b]pyrazol-3-yl)sulfonyl)piperidin-4-yl)-7-fluoro-[1,2,4]triazolo[1,5-a]pyridine], the IC50 worked out at 26 nM.

As to `O=S(=O)(c1cnc2n1CCC2)N1CCC(c2cn3ncnc3cc2F)CC1` [Compound 233, 6-(1-((6,7-dihydro-5H-pyrrolo[1,2-a]imidazol-3-yl)sulfonyl)piperidin-4-yl)-7-fluoro-[1,2,4]triazolo[1,5-a]pyridine], the IC50 is over 10000 nM.

For the compound `Cc1ncc(S(=O)(=O)N2CCC(c3cn4ncnc4cc3F)CC2)n1C` [Compound 234, 6-(1-((1,2-dimethyl-1H-imidazol-5-yl)sulfonyl)piperidin-4-yl)-7-fluoro-[1,24]triazolo[1,5-a]pyridine], the concentration for half-maximal inhibition (IC50) was 407 nM.

Take `Cc1nc(C)c(S(=O)(=O)N2CCC(c3cn4ncnc4cc3F)CC2)s1` [Compound 235, 5-((4-(7-fluoro-[1,2,4]triazolo[1,5-a]pyridin-6-yl)piperidin-1-yl)sulfonyl)-2,4-dimethylthiazole]: the IC50 is over 10000 nM.

Turning to `O=S(=O)(c1cnn2c1CCCC2)N1CCC(c2cn3ncnc3cc2F)CC1` [Compound 237, 7-fluoro-6-(1-((4,5,6,7-tetrahydropyrazolo[1,5-a]pyridin-3-yl)sulfonyl)piperidin-4-yl)-[1,2,4]triazolo[1,5-a]pyridine], the IC50 worked out at 33 nM.

As to `Cc1cc2ncnn2cc1C1CCN(S(=O)(=O)c2cnn3c2CCCC3)CC1` [Compound 238, 7-methyl-6-(1-((4,5,6,7-tetrahydropyrazolo[1,5-a]pyridin-3-yl)sulfonyl)piperidin-4-yl)-[1,2,4]triazolo[1,5-a]pyridine], the half-inhibitory concentration (IC50) amounted to 6 nM.

(Values after US20230183237A1, “COMPETITIVE AND NONCOMPETITIVE INHIBITORS OF THE MUSCARINIC ACETYLCHOLINE RECEPTOR M5” (Vanderbilt University, priority 2020, published 2023).)
